Experimental data as given in PubChem BioAssay AID1918956 (Molecular Pharmacology Branch, DTP, NCI, 2023).
Values joined by “and” are separate entries in the source; they are usually repeats but may differ in a detail not shown here. Equal entries are not always repeated.

System: OVCAR-5 complex spheroids, viability
Test: Anticancer human tumor OVCAR-5 cell line growth inhibition;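 also: spheroids exposed to agents for seven days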;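 as to viability, T/C: 100% = DMSO vehicle control wells viability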
Conditions: for viability, T/C: stronger effect = lower value
Text: Multicellular complex tumor spheroid response to LSD1 Inhibitor Iadademstat in combination with a variety of drugs and investigational agents in selected tumor cell lines
The current study was undertaken to assess response to LSD1 inhibitors in combination with standard-of-care drugs and investigational agents in solid tumor complex spheroid models as well as in the K-562 leukemia. Complex spheroids include a stromal component modeled by human endothelial cells (HUVEC) and fibroblasts modeled by human mesenchymal stem cells (MSCs). The concentration ranges selected for each drug and investigational agent were based upon clinically achievable concentrations if the clinical Cmax of the agent was known.
Compounds. The drugs and investigational agents used in this study are listed on Table 1. All of the agents used, including staurosporine (NSC755774) and gemcitabine (NSC613327), were obtained from the Developmental Therapeutics Program, NCI. FDA-approved anticancer drugs are available from the NCI at http://dtp.nci.nih.gov/branches/dscb/oncology_drugset_explanation.html. Drugs and investigational agents were >95% pure by proton nuclear magnetic resonance (NMR) and liquid chromatography/mass spectrometry (LC/MS). Stock solutions were prepared at 400x in DMSO, stored at -70 degrees C, and diluted in fresh medium prior to their use. The final concentration of DMSO in cell culture wells never exceeded 0.25% (v/v). The FDA-approved anticancer drug set is available from the Developmental Therapeutics Program at https://dtp.cancer.gov/organization/dscb/obtaining/available_plates.htm. All drugs and investigational agents were tested over a range starting from a high concentration at or near the clinical Cmax and decreasing in half-log increments. If the clinical Cmax for an agent had not been determined, the highest concentration tested was 10 microM.
Cell Lines. The patient-derived cancer cell (PDC) lines: 292921-168-R-J2-PDC, K24384-001-R-PDC, and 521955-158-R2-J5-PDC pancreatic carcinomas, 556581-035-R-J1 ovarian carcinoma, 324938-238-R-J1-PDC, 855422-203-R-J1-PDC and 883617-216-R-J1-PDC urothelial bladder carcinomas, 743489-274-T-PDC renal cell carcinoma, 138582-R-J1 Merkel cell tumor, K60290-347-R-J1 and K57222-313-R-J1-PDC glioblastomas, 653999-131-R-J2-PDC, LG0703-F948-PDC, and 349418-098-R-PDC non-small cell lung carcinomas, 885512-296-R-J2-PDC, 171881-019-R-J1-PDC breast carcinomas and 186277-243-T-J2-PDC and 233499-124-R-J2-PDC colon carcinomas were obtained from the NCI Patient-Derived Models Repository (PDMR, https://pdmr.cancer.gov). The established cell lines NCI/ADR-RES (RRID:CVCL_14520 and OVCAR-5 (RRID:CVCL_1628) ovarian carcinomas, 786-O (RRID:CVCL_1051) and A498 […] renal cell carcinoma, NCI-H211 (ATCC, cat. CRL-5824; RRID:CVCL_1529), NCI-H196 (ATCC, cat. CRL-5823, RRID:CVCL_1509), SW 1271 (ATCC, cat. CRL-2177, RRID:CVCL_1716) and NCI-H1876 (ATCC, cat. CRL-5902, RRID:CVCL_1503) small cell lung carcinomas, MDA-MB-231 (RRID:CVCL_0062) and MDA-MB-468 (RRID:CVCL_0419)breast carcinomas (10-12). Pooled donor human umbilical vein endothelial cells (HUVEC, Lonza, cat. CC-2519) and human mesenchymal stem cells (hMSC, Lonza, cat. PT-2501) were purchased from Lonza (Walkersville, MD).
Cell Culture. All cells were maintained in an incubator at 37 degrees C and 5% CO2 with 95% humidity. The PDC lines were cultured according to standard operating procedures established by the NCI PDMR (https://pdmr.cancer.gov). Briefly all PDCs were thawed and cultured in Matrigel-coated flasks prepared with a working solution of 1X Ham's F-12 nutrient mix, without supplementation (Invitrogen, Waltham, MA, cat. 11765054), 100 U/mL penicillin-streptomycin (Invitrogen, cat. 15140122), and 2.5% Matrigel (Corning Inc., Corning, NY, cat. 354248) for the first three passages. […]

[1] = curve of first compound, second compound 0.1 µM
[2] = curve of first compound, second compound 0.316 µM
[3] = curve of first compound, second compound 1 µM
[4] = curve of first compound, second compound 3.16 µM
[5] = curve of first compound, second compound 10 µM

Nc1ncn(C2CC(O)C(CO)S2)c(=O)n1 (configuration not stated) + NC1CCC(NC2CC2c2ccccc2)CC1
IC50 [1]: > 300 nM | IC50 [2]: > 300 nM | IC50 [3]: > 300 nM | IC50 [4]: > 300 nM | IC50 [5]: > 300 nM | viability, T/C (second compound 0.1 µM, first compound 0.000949 µM): 119% | viability, T/C (second compound 0.1 µM, first compound 0.003 µM): 104% | viability, T/C (second compound 0.1 µM, first compound 0.00949 µM): 111% | viability, T/C (second compound 0.1 µM, first compound 0.03 µM): 99.6% | viability, T/C (second compound 0.1 µM, first compound 0.0949 µM): 92.2% | viability, T/C (second compound 0.1 µM, first compound 0.3 µM): 77% | viability, T/C (second compound 0.316 µM, first compound 0.000949 µM): 112% | viability, T/C (second compound 0.316 µM, first compound 0.003 µM): 102% | viability, T/C (second compound 0.316 µM, first compound 0.00949 µM): 105% | viability, T/C (second compound 0.316 µM, first compound 0.03 µM): 94.6% | viability, T/C (second compound 0.316 µM, first compound 0.0949 µM): 93.4% | viability, T/C (second compound 0.316 µM, first compound 0.3 µM): 80.2% | viability, T/C (second compound 1 µM, first compound 0.000949 µM): 102% | viability, T/C (second compound 1 µM, first compound 0.003 µM): 99.5% | viability, T/C (second compound 1 µM, first compound 0.00949 µM): 101% | viability, T/C (second compound 1 µM, first compound 0.03 µM): 89.8% | viability, T/C (second compound 1 µM, first compound 0.0949 µM): 93.9% | viability, T/C (second compound 1 µM, first compound 0.3 µM): 80.5% | viability, T/C (second compound 3.16 µM, first compound 0.000949 µM): 92% | viability, T/C (second compound 3.16 µM, first compound 0.003 µM): 101% | viability, T/C (second compound 3.16 µM, first compound 0.00949 µM): 94.1% | viability, T/C (second compound 3.16 µM, first compound 0.03 µM): 96.9% | viability, T/C (second compound 3.16 µM, first compound 0.0949 µM): 89% | viability, T/C (second compound 3.16 µM, first compound 0.3 µM): 75.8% | viability, T/C (second compound 10 µM, first compound 0.000949 µM): 91% | viability, T/C (second compound 10 µM, first compound 0.003 µM): 81.9% | viability, T/C (second compound 10 µM, first compound 0.00949 µM): 85.9% | viability, T/C (second compound 10 µM, first compound 0.03 µM): 83.7% | viability, T/C (second compound 10 µM, first compound 0.0949 µM): 82.7% | viability, T/C (second compound 10 µM, first compound 0.3 µM): 71%

CC1COCCN1c1cc(C2(S(C)(=N)=O)CC2)nc(-c2ccnc3[nH]ccc23)n1 (configuration not stated) + NC1CCC(NC2CC2c2ccccc2)CC1
IC50 [1]: 2530 nM | IC50 [2]: 2620 nM | IC50 [3]: 3030 nM | IC50 [4]: 2700 nM | IC50 [5]: 2200 nM | viability, T/C (second compound 0.1 µM, first compound 0.0316 µM): 102% | viability, T/C (second compound 0.1 µM, first compound 0.1 µM): 116% | viability, T/C (second compound 0.1 µM, first compound 0.316 µM): 97.7% | viability, T/C (second compound 0.1 µM, first compound 1 µM): 69.9% | viability, T/C (second compound 0.1 µM, first compound 3.16 µM): 47.4% | viability, T/C (second compound 0.1 µM, first compound 10 µM): 35.6% | viability, T/C (second compound 0.316 µM, first compound 0.0316 µM): 108% | viability, T/C (second compound 0.316 µM, first compound 0.1 µM): 103% | viability, T/C (second compound 0.316 µM, first compound 0.316 µM): 94.7% | viability, T/C (second compound 0.316 µM, first compound 1 µM): 70% | viability, T/C (second compound 0.316 µM, first compound 3.16 µM): 45.8% | viability, T/C (second compound 0.316 µM, first compound 10 µM): 37.2% | viability, T/C (second compound 1 µM, first compound 0.0316 µM): 109% | viability, T/C (second compound 1 µM, first compound 0.1 µM): 99.5% | viability, T/C (second compound 1 µM, first compound 0.316 µM): 97.8% | viability, T/C (second compound 1 µM, first compound 1 µM): 70.9% | viability, T/C (second compound 1 µM, first compound 3.16 µM): 50.5% | viability, T/C (second compound 1 µM, first compound 10 µM): 36% | viability, T/C (second compound 3.16 µM, first compound 0.0316 µM): 104% | viability, T/C (second compound 3.16 µM, first compound 0.1 µM): 106% | viability, T/C (second compound 3.16 µM, first compound 0.316 µM): 97% | viability, T/C (second compound 3.16 µM, first compound 1 µM): 70.2% | viability, T/C (second compound 3.16 µM, first compound 3.16 µM): 48.4% | viability, T/C (second compound 3.16 µM, first compound 10 µM): 37.1% | viability, T/C (second compound 10 µM, first compound 0.0316 µM): 84% | viability, T/C (second compound 10 µM, first compound 0.1 µM): 82.4% | viability, T/C (second compound 10 µM, first compound 0.316 µM): 79.2% | viability, T/C (second compound 10 µM, first compound 1 µM): 61.3% | viability, T/C (second compound 10 µM, first compound 3.16 µM): 45.3% | viability, T/C (second compound 10 µM, first compound 10 µM): 34%

CC1(C)CCC(CN2CCN(c3ccc(C(=O)NS(=O)(=O)c4ccc(NCC5CCOCC5)c([N+](=O)[O-])c4)c(Oc4cnc5[nH]ccc5c4)c3)CC2)=C(c2ccc(Cl)cc2)C1
viability, T/C (compound 0.0316 µM): 98% and 105% | viability, T/C (compound 0.1 µM): 101% and 98.1% | viability, T/C (compound 0.316 µM): 95.8% and 105% | viability, T/C (compound 1 µM): 107% and 105% | viability, T/C (compound 3.16 µM): 107% and 103% | viability, T/C (compound 10 µM): 33.7% and 40.2% | IC50 (curve of compound): 7590 nM and 8360 nM
